Experimental data as given in patent publication US11524966B1 (Valo Early Discovery, Inc., priority 2017, dated 2022).

Molecular target: T1, USP28 (His-tagged USP28-FL-mammalian) (Homo sapiens, UniProt Q96RU2)
T1 construct: Expression of USP28 (1-1077)-TEV-6*His (pTT5 vector); made in house; host or cells: Expi293f cells (pTT5 vector)
T1 sequence (Q96RU2 1-1077): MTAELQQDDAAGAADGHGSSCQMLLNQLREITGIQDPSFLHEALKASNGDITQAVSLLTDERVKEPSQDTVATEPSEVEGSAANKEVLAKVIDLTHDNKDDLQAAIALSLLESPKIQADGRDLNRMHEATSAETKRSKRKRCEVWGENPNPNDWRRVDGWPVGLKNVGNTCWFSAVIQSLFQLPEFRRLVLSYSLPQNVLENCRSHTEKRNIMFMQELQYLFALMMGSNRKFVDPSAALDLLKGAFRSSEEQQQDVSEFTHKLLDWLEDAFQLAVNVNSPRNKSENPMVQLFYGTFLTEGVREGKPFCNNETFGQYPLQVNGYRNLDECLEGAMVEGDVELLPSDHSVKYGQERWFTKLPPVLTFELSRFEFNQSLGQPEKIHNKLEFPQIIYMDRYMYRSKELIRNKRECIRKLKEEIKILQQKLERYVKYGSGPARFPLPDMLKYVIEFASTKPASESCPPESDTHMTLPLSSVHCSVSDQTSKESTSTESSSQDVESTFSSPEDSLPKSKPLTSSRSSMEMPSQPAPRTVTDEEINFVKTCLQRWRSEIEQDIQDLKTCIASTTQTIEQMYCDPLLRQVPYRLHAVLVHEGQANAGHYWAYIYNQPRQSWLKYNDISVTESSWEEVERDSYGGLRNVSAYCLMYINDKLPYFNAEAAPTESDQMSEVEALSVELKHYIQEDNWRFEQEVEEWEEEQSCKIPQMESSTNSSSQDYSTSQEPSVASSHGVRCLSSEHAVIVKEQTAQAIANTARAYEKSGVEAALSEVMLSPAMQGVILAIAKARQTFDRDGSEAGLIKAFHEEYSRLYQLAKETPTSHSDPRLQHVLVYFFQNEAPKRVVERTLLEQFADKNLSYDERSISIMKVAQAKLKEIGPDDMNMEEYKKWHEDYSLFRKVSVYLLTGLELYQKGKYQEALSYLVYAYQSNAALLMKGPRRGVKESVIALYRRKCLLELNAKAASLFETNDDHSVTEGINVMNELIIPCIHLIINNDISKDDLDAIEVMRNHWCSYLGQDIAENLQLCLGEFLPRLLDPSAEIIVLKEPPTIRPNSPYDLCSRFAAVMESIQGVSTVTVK
Assay: Ubiquitin-Rhodamine 110 Assay for USP28 Activity, Example A-1(a)
Format: biochemical
Conditions: Ubiquitin-Rhodamine 110 assay, Example A-1(a); read-out: USP28 A-1(a) IC50 range
How it was run: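 Full-length His-tagged USP28 (1-1077, Expi293F-expressed; […]) was preincubated 30 min with compound (25 μM–1.3 nM, 10-point 3-fold) in 20 mM Tris-HCl pH 8.0, 3 mM BME, 0.03% BGG, 0.01% Triton X-100. Ub-Rh110 (25 nM) was then added for 45 min at room temperature, stopped with citric acid, and read by fluorescence (485/535 nm).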

| Compound | IC50 [nM] |
| --- | --- |
| O=C(N[C@@H]1CCc2c(c(F)cc(N3CC4CCC(C3)N4)c2C(F)F)C1)c1cnc2c(c1)[C@H]1C[C@H]1CN2 (single isomer, unassigned) [Example 362] | 200 to 2000 |
| Cc1ccc2c(N)c(C(=O)N[C@H]3COc4cc(N5CCC(F)(F)CC5)ccc4C3)sc2n1 [Example 5-1, (R)-3-amino-N-(7-(4,4-difluoropiperidin-1-yl)chroman-3-yl)-6-methylthieno[2,3-b]pyridine-2-carboxamide] | 1 to 50 |
| O=C(N[C@H]1COc2cc(N3CCNCC3)ccc2C1)c1ccc(NCc2cccc(C(F)(F)F)c2)nc1 [Example 469, (R)-N-(7-(piperazin-1-yl)chroman-3-yl)-6-((3-(trifluoromethyl)benzyl)amino)nicotinamide] | 50 to 200 |
| Cc1ccc2c(N)c(C(=O)N[C@H]3CCc4nc(N5C[C@H](N)[C@@]6(CCCO6)C5)ccc4C3)sc2n1 [Example 393, 3-amino-N-[(6S)-2-[(5R,9S)-9-amino-1-oxa-7-azaspiro[4.4]nonan-7-yl]-5,6,7,8-tetrahydroquinolin-6-yl]-6-methylthieno[2,3-b]pyridine-2-carboxamide] | 50 to 200 |
| Cc1cnc2c(N)c(C(=O)N[C@@H]3CCc4cc(N5CC6CNCC(C5)O6)ccc4C3)sc2n1 [Example 450, N-((2R)-6-(9-oxa-3,7-diazabicyclo[3.3.1]nonan-3-yl)-1,2,3,4-tetrahydronaphthalen-2-yl)-7-amino-3-methylthieno[2,3-b]pyrazine-6-carboxamide] | 200 to 2000 |
| CCn1cc(Cl)c2cc(C(=O)N[C@H]3COc4c(C#N)c(N5CC6CCC(C5)N6)cc(F)c4C3)nnc21 [Example 356, 5-chloro-N-[(3R)-8-cyano-7-{3,8-diazabicyclo[3.2.1]octan-3-yl}-5-fluoro-3,4-dihydro-2H-1-benzopyran-3-yl]-7-ethyl-7H-pyrrolo[2,3-c]pyridazine-3-carboxamide] | 200 to 2000 |
| COC[C@H]1CN(c2ccc3c(n2)OC[C@H](NC(=O)c2sc4nc(C)cc(C)c4c2N)C3)C[C@H]1N [Example 349, 3-amino-N-[(3R)-7-[(3S,4S)-3-amino-4-(methoxymethyl)pyrrolidin-1-yl]-2H,3H,4H-pyrano[2,3-b]pyridin-3-yl]-4,6-dimethylthieno[2,3-b]pyridine-2-carboxamide] | 50 to 200 |
| COC[C@@H]1CN(c2ccc3c(n2)OC[C@H](NC(=O)c2sc4nc(C)cc(C)c4c2N)C3)C[C@@H]1N [Example 348, 3-amino-N-[(3R)-7-[(3R,4R)-3-amino-4-(methoxymethyl)pyrrolidin-1-yl]-2H,3H,4H-pyrano[2,3-b]pyridin-3-yl]-4,6-dimethylthieno[2,3-b]pyridine-2-carboxamide] | 50 to 200 |
| CCn1ccc2cc(C(=O)N[C@H]3CCc4nc(N5C[C@H](OC)[C@@H](N)C5)ccc4C3)cnc21 [Example 353, N-[(6S)-2-[(3S,4S)-3-amino-4-methoxypyrrolidin-1-yl]-5,6,7,8-tetrahydroquinolin-6-yl]-1-ethyl-1H-pyrrolo[2,3-b]pyridine-5-carboxamide] | 200 to 2000 |
| CCc1cccc2c(C(=O)N[C@H]3COc4cc(N5CCNCC5)ccc4C3)cnn12 [Example 474, 7-ethyl-N-[(3R)-7-(piperazin-1-yl)-3,4-dihydro-2H-1-benzopyran-3-yl]pyrazolo[1,5-a]pyridine-3-carboxamide] | 1 to 50 |
| O=C(N[C@H]1COc2cc(N3CCNCC3)ccc2C1)c1cnn2ccccc12 [Example 460, (R)-N-(7-(piperazin-1-yl)chroman-3-yl)pyrazolo[1,5-a]pyridine-3-carboxamide] | > 2000 |
| Cc1ccc2c(N)c(C(=O)N[C@H]3CCc4nc(N5C[C@@H](N)[C@@H](C(F)F)C5)ccc4C3)sc2n1 [Example 346, 3-amino-N-[(6S)-2-[(3S,4S)-3-amino-4-(difluoromethyl)pyrrolidin-1-yl]-5,6,7,8-tetrahydroquinolin-6-yl]-6-methylthieno[2,3-b]pyridine-2-carboxamide] | 50 to 200 |
| Cc1cnc2c(N)c(C(=O)N[C@H]3CCc4cc(N5CC6COCC(C5)N6)ccc4C3)sc2n1 [Example 456, N-((2S)-6-(3-oxa-7,9-diazabicyclo[3.3.1]nonan-7-yl)-1,2,3,4-tetrahydronaphthalen-2-yl)-7-amino-3-methylthieno[2,3-b]pyrazine-6-carboxamide] | 50 to 200 |
| Cc1ccc2c(N)c(C(=O)N[C@H]3COc4c(cc(F)c(N5CCNCC5)c4F)C3)sc2n1 (single isomer, unassigned) [Example 3-17] | 1 to 50 |
| Cc1cc(C)n2ncc(C(=O)N[C@H]3COc4cc(N5CCNCC5)ccc4C3)c2n1 [Example 463, (R)-5,7-dimethyl-N-(7-(piperazin-1-yl)chroman-3-yl)pyrazolo[1,5-a]pyrimidine-3-carboxamide] | > 2000 |
| COc1ccn2ncc(C(=O)N[C@H]3COc4cc(N5CCNCC5)ccc4C3)c2c1 [Example 461, (R)-5-methoxy-N-(7-(piperazin-1-yl)chroman-3-yl)pyrazolo[1,5-a]pyridine-3-carboxamide] | > 2000 |
| O=C(N[C@H]1COc2cc(N3CC4CCC(C3)N4)ccc2C1)c1cnc2c(c1)[C@H]1C[C@H]1CN2 [Example 3-16, (1aR,7bS)-N-((3R)-7-(3,8-diazabicyclo[3.2.1]octan-3-yl)chroman-3-yl)-1a,2,3,7b-tetrahydro-1H-cyclopropa[c][1,8]naphthyridine-6-carboxamide] | 200 to 2000 |
| Cc1ccc2c(N)c(C(=O)N[C@H]3COc4cc(N5CCC(C(=O)O)CC5)ccc4C3)sc2n1 [Example 6-1, (R)-1-(3-(3-Amino-6-methylthieno[2,3-b]pyridine-2-carboxamido)chroman-7-yl)piperidine-4-carboxylic Acid] | 200 to 2000 |
| O=C(N[C@H]1COc2cc(N3CCNCC3)ccc2C1)c1ccc(NCc2ccc3c(c2)OCCO3)nc1 [Example 471, (R)-6-(((2,3-dihydrobenzo[b][1,4]dioxin-6-yl)methyl)amino)-N-(7-(piperazin-1-yl)chroman-3-yl)nicotinamide] | 200 to 2000 |
| Cc1ccc2c(N)c(C(=O)N[C@H]3COc4cc(N5CC[C@H](N)C5)ccc4C3)sc2n1 [Example 369, 3-amino-N-[(3R)-7-[(3S)-3-aminopyrrolidin-1-yl]-3,4-dihydro-2H-1-benzopyran-3-yl]-6-methylthieno[2,3-b]pyridine-2-carboxamide] | 1 to 50 |
| Cc1ccc2c(N)c(C(=O)N[C@H]3COc4cc(N5CCC[C@@](C)(O)C5)ccc4C3)sc2n1 [Example 7-3, 3-amino-N-((R)-7-((R)-3-hydroxy-3-methylpiperidin-l-yl)chroman-3-yl)-6-methylthieno[2,3-b]pyridine-2-carboxamide] | 1 to 50 |
| Cc1ccc2c(N)c(C(=O)N[C@H]3CCc4nc(N5C[C@H](N)[C@]6(CCCO6)C5)ccc4C3)sc2n1 [Example 390, 3-amino-N-[(6S)-2-[(5S,9S)-9-amino-1-oxa-7-azaspiro[4.4]nonan-7-yl]-5,6,7,8-tetrahydroquinolin-6-yl]-6-methylthieno[2,3-b]pyridine-2-carboxamide] | 200 to 2000 |
| Cc1cnc2c(N)c(C(=O)N[C@@H]3CCc4cc(N5CCCNCC5)ccc4C3)sc2n1 [Example 452, (R)-N-(6-(1,4-diazepan-1-yl)-1,2,3,4-tetrahydronaphthalen-2-yl)-7-amino-3-methylthieno[2,3-b]pyrazine-6-carboxamide] | 200 to 2000 |
| Cc1cnc2c(N)c(C(=O)N[C@H]3CCc4cc(N5CC6CNCC(C5)O6)ccc4C3)sc2n1 [Example 448, N-((2S)-6-(9-oxa-3,7-diazabicyclo[3.3.1]nonan-3-yl)-1,2,3,4-tetrahydronaphthalen-2-yl)-7-amino-3-methylthieno[2,3-b]pyrazine-6-carboxamide] | 1 to 50 |
| Cc1ccc2c(N)c(C(=O)N[C@H]3COc4cc(N5CC6COCC(C5)C6(F)F)ccc4C3)sc2n1 [Example 5-4, 3-amino-N-((3R)-7-(9,9-difluoro-3-oxa-7-azabicyclo[3.3.1]nonan-7-yl)chroman-3-yl)-6-methylthieno[2,3-b]pyridine-2-carboxamide] | 1 to 50 |
| Cc1ccc2c(N)c(C(=O)N[C@H]3COc4cc(N5CCS(=O)(=O)CC5)ccc4C3)sc2n1 [Example 5-2, (R)-3-amino-N-(7-(1,1-dioxidothiomorpholino)chroman-3-yl)-6-methylthieno[2,3-b]pyridine-2-carboxamide] | 1 to 50 |
